Measured values reported in patent US5589461A, “Active substance for inhibiting the proliferation rate of hepatocytes” (priority 1994, dated 1996).
Values joined by “and” are separate entries in the source; they are usually repeats but may differ in a detail not shown here. Equal values may be shown once. Where a SMILES comes first, the peptide text is derived from it.

What was measured:
[1] = tested on: hepatocytes; test: proliferation rate of hepatocytes in rats after 66% partial hepatectomy (3H-thymidine, specific radioactivity of DNA); type: in vivo, rat
Excerpt: To carry out these experiments, young female Wistar rats weighing 100 g were used, which had been provided from the SPF animal house department of the Max-Planck-Instut fur Biochemie in D-82152 Martinstied.
Seven groups of rats were subjected to 66% partial hepatectomy. In each experimental group 4 animals were used. In a slight modification of the Higgins and Anderson method (Higgins, G. M., Anderson, R. M., Archives of Pathology 12 (1931), p. 186-202), the rats were submitted to partial hepatectomy between 13.00 h and 13.30 h. The tetrapeptide SDKP synthesized in the conventional way and dissolved in 1 ml of 0.9% NaCl was injected intraperitoneally (i.p.) to three groups immediately after operation and to three other groups 10 hrs after the operation, each three with different quantities (500 μg, 1 μg). The seventh group served as a control group, receiving the solvent only. […] The livers were conserved at -20° C. up to the time of determining the specific radioactivity of the DNA in the hepatocyte nuclei.
This specific radioactivity was used as a marker for the proliferation behaviour of the hepatocytes: Thymidine is incorporated only in DNA (not e.g. in RNA), and significant DNA synthesis is effected only during cell proliferation. The specific radioactivity of the DNA (in dpm/μg DNA) is the quotient of the result of radioactivity measurement of a sample (in dpm, i.e. disintegrations per minute) by the DNA content of that sample (in μg). The proliferation promoting or proliferation inhibiting character of the peptide (depending on the administered dose and the time of administration after partial hepatectomy) was determined by establishing the percentage of the specific radioactivity of the DNA in the hepatocyte nuclei of the experimental group as compared with the specific radioactivity of the control group associated with each experiment.
For determination of the specific radioactivity, the DNA was first extracted from the liver. […]
For measurement of the radioactivity, scintillation counting liquid was added to 1 ml of the extract, and ^3 H measurement was effected. […]

[2] = tested on: YOSHIDA liver tumor cell ascites AH 130; test: development of the YOSHIDA ascites AH 130 in rat; type: in vivo
Method: Two groups, each comprising five female Wistar rats weighing approx. 100 grams, were inoculated with the YOSHIDA liver tumor cell ascites AH 130 of a rat having been infected 8 days ago. 0.5 ml of ascites fluid were injected intraperitoneally (i.p.) to each animal. Starting on the seventh day after ascites inoculation, 1 μg of SDK (dissolved in 1 ml of 0.9% NaCl solution) was injected i.p. to each animal of one group (five rats) during four days. Then the animals of both groups were killed. The following parameters were determined:
(a) Weight or respectively volume of ascites fluid. The killed rats were weighed, the ascites was sucked off as completely as possible, and the animals were weighed again. The difference resulting from these two ponderations corresponded to the ascites volume (1 g ≈1 ml).
(b) Number of tumor cells in the ascites 2 ml of the sucked-off ascites for each animal were placed into an EDTA tube, to prevent cells from agglomerating. With an aliquot thereof, the number of tumor cells was measured in a Coulter counter and extrapolated for the total volume.
The third and fourth columns give the respective results of twin measurements.

[3] = tested on: Hep G2 cells; test: human tumor cells in tissue culture (cell growth, 3H-thymidine incorporation); type: cell-based
Method: The effect of the tripeptide on human tumor cells was tested in an in-vitro model. For this purpose, Hep G2 cells were used. This cell line is a human hepatom from the tumor cell bank of "Deutsches Krebsforschungszentrum Heidelberg ", which is cultivated as a monolayer in 90% DMEM (Dulbecco's modified Eagle's medium)/10% FKS (fetal calf serum) in a subculture interval of three to five days. Sixty dishes of each of the experimental and control cultures were used. A solution of 20 mg of SDK in 0.2 ml of 0.9% NaCl served as a stock solution which was diluted with a physiological sodium chloride solution as required for each case.
One day after transferring the cells, 0.2 ml of tripeptide SDK dissolved in 0.9% NaCl (concentration: 1 μg/ml) were added to each 10 ml of culture medium. The control dishes received 0.2 ml of solvent.
This test was repeated, this time adding 0.5 ng, 1.0 ng, 2.0 ng and 4.0 ng of SDK in 0.9% NaCl per 1 ml of culture medium. The control dishes again received the corresponding quantity of solvent. Moreover, 0.05 mCi 6-^3 H-thymidine were added to the cultures […] prior to expiration of the observation period, followed by incubation for 1 hour. The DNA of the cells was isolated as described under item (1.), and the radioactivity was measured- The results are listed in the following chart.

[4] = tested on: hepatitis B viruses; test: synthesis of hepatitis B viruses in transfected Hep G2 cells (HBSAG/HBEAG radioimmunoassay); type: cell-based; conditions: for Ratio of mean values in cpm before/after treatment, HBEAG / Ratio of mean values in cpm before/after treatment, HBSAG: six days
Excerpt: Hepatitis B viruses can be cultivated in Hep G2 cells. For this purpose, a recombining plasmide containing the complete virus DNA is channelled into the cells. Starting from this, the synthesizing mechanism of the cells transfected in this way will produce hepatitis B viruses (cf. Chungming Chang et al., EMBO J. 6, p. 675-680, 1987) The virus synthesis manifests itself by secreting large quantities of two surface antigens of that virus (HBSAG and HBEAG). The antigens can be detected by means of a radioimmunoassay (RIA). In this determination, an unknown quantity of antigen (HBSAG and HBEAG) competes with a known quantity of radioactively marked antigen for a limited number of antibody binding positions in a predetermined quantity of the antiserum. In the state of equilibrium, the surplus antigen exists in both the bound and the free dissolved conditions. Now, if the quantity of radioactively marked antigen is constant in a series of reactions, the proportion bound to the antibody will decrease in accordance with an increasing quantity of unmarked antigen added to the individual samples.
For practical execution of this process, a calibration curve is established first, using known quantities of marked and unmarked antigen, which will then permit determination of the unknown quantity of antigen. After incubation, the free antigen is separated from the bound antigen, and the two fractions are measured separately.
A Hep-G2 cell culture was steadily transfected with hepatitis B viruses as described by SELLS et al., Proc. Natl. Acad. Sci. USA 1987, 84, p. 1005-1009. The transfected cells were sowed in ten 4.5 cm dishes at a density of 8×10^5 cells, and in four 9 cm dishes at a density of 1.6×10^6 cells respectively. After 24 hours, fresh medium was added, containing the tripeptide SDK at concencentrations of 0.5 ng/ml, 1.0 ng/ml, 3.0 ng/ml and 5 ng/ml for each two 4.9 cm dishes, or 1.0 ng/ml for each two 9 cm dishes respectively. The tripeptide had been prediluted in completed DMEM ([…]) and sterilized by filtration. The remaining dishes served as a control, receiving the pure medium. The old medium was conserved in the supernatant for measurement of antigens, in order to exclude artifacts due to possible heterogeneities of cell density. The samples of medium for measurement of antigens were taken after six days. Measurement was effected using a standard RIA kit (HBSAG Ansria II/125, type 7802, and HBEAG Abbott Hbe (rDNA), type 1237/24, both from Abbott, Wiesbaden), according to instructions for use. The experiments were conducted with twin samples (two dishes each), since the cells from one dish were not enough.

[5] = tested on: human T-cells; conditions: cited from earlier work
[6] = tested on: IgM secreting B-lymphocytes; conditions: mice; cited from earlier work
[7] = 0.5 ng of SDK per ml of medium, 4.5 cm dishes
[8] = 1.0 ng of SDK per ml of medium, 4.5 cm dishes
[9] = 1.0 ng of SDK per ml of medium, 9.0 cm dishes
[10] = 3.0 ng of SDK per ml of medium, 4.5 cm dishes
[11] = 5.0 ng of SDK per ml of medium, 4.5 cm dishes

SMILES: NCCCC[C@H](NC(=O)[C@H](CC(=O)O)NC(=O)[C@@H](N)CO)C(=O)O [SDK, Ser-Asp-Lys] (H-Ser-Asp-Lys-OH)
- effect on hepatocyte proliferation ([1]; 1 μg injected after a certain time interval (1 h, 3, 6, 10 hrs after operation)): inhibiting effect
- effect on hepatocyte proliferation ([1]; 1 μg injected immediately after operation): slightly proliferation promoting effect
- decrease in proliferation ([1]; 1 μg injected ten hours after operation): about fifty
- average number of tumor cells as % of the number found in control animals ([2]; 1 μg SDK/animal i.p. during four days): 19.1%
- Ascites ([2]; 1 μg SDK/animal i.p. during four days from seventh day after ascites inoculation): 5.1 mL and 5.2 mL and 4.3 mL and 5.7 mL
- quantity of ascites ([2]; 1 μg SDK/animal vs control): drastic decrease
- total number of tumor cells ([2]; 1 μg SDK/animal vs control): drastic decrease
- Cell number total, mean value + standard deviation ([2]; 1 μg SDK/animal, five rats): 147.7 ± 70.1 × 10^6
- Inhibition of proliferation in % ([3]; 0.5 ng of SDK per ml of medium): 19.3%
- Inhibition of proliferation in % ([3]; 1.0 ng of SDK per ml of medium): 44.9%
- Inhibition of proliferation in % ([3]; 2.0 ng of SDK per ml of medium): 34.0%
- Inhibition of proliferation in % ([3]; 4.0 ng of SDK per ml of medium): 12.4%
- concentration of maximum proliferation inhibiting effect ([3]; Hep G2, per ml of culture medium): 1 ng/mL
- Ratio of mean values in cpm before/after treatment, HBEAG [4, 7]: 6.10
- Ratio of mean values in cpm before/after treatment, HBSAG [4, 7]: 4.47
- Ratio of mean values in cpm before/after treatment, HBEAG [4, 8]: 6.22
- Ratio of mean values in cpm before/after treatment, HBSAG [4, 8]: 4.18
- Ratio of mean values in cpm before/after treatment, HBEAG [4, 9]: 6.59
- Ratio of mean values in cpm before/after treatment, HBSAG [4, 9]: 3.89
- Ratio of mean values in cpm before/after treatment, HBEAG [4, 10]: 7.31
- Ratio of mean values in cpm before/after treatment, HBSAG [4, 10]: 4.57
- Ratio of mean values in cpm before/after treatment, HBEAG [4, 11]: 8.00
- Ratio of mean values in cpm before/after treatment, HBSAG [4, 11]: 4.18
- concentration of antigens, and hence the virus synthesis ([4]; transfected Hep G2 cells, SDK vs untreated): significantly reduced
- rosette formation due to interaction of human T-cells and sheep erythrocytes [5]: inhibits rosette formation
- immunomodulating effect: humoral response (generation of IgM secreting B-lymphocytes) to red blood cells of sheep [6]: stimulation of the humoral response
